According to ChEMBL document CHEMBL1130991, “Synthesis and antibacterial activity of [6,5,5] and [6,6,5] tricyclic fused oxazolidinones” (Bioorg Med Chem Lett, 1998):
Converted amounts (≈) assume the structure as drawn.

Key:
Type in all cases: functional
Staphylococcus aureus [1] = assay: Antibacterial activity against Staphylococcus aureus UC12673
Staphylococcus aureus [2] = assay: Antibacterial activity against Staphylococcus aureus UC9213
Streptococcus pneumoniae = assay: Antibacterial activity against Streptococcus pneumoniae UC9912
Enterococcus faecalis = assay: Antibacterial activity against Enterococcus faecalis UC9217
[3] = system: Staphylococcus epidermidis; assay: Antibacterial activity against Staphylococcus epidermidis UC30031UC
Bacteroides fragilis [4] = assay: Antibacterial activity against Bacteroides fragilis UC12199
Mus musculus [5] = assay: (§1) Effective dose required to inhibit Staphylococcus aureus UC9213 in mice subjected to a lethal systemic infection (when administered orally); conditions: po
Staphylococcus aureus [6] = assay: Effective dose required to inhibit Staphylococcus aureus UC9271 in mice subjected to a lethal systemic infection (when administered orally); conditions: po
Bacteroides fragilis [7] = assay: Compound was evaluated for antibacterial activity against Bacteroides fragilis UC12199 UC (Upjohn Culture)
Staphylococcus aureus [8] = assay: as §1; conditions: po
Mus musculus [9] = assay: Compound was evaluated for antibacterial activity against Staphylococcus aureus UC9213 ((methicillin susceptible) in mice administered orally; conditions: po

SMILES	MIC (Staphylococcus aureus [1]) [µg/mL]	MIC (Staphylococcus aureus [2]) [µg/mL]	MIC (Streptococcus pneumoniae) [µg/mL]	MIC (Enterococcus faecalis) [µg/mL]	MIC [3] [µg/mL]	MIC (Bacteroides fragilis [4]) [µg/mL]	ED50 (Mus musculus [5]) [mg/kg]	ED50 (Staphylococcus aureus [6]) [mg/kg]	MIC (Bacteroides fragilis [7]) [µg/mL]	ED50 (Staphylococcus aureus [8]) [mg/kg]	ED50 (Mus musculus [9]) [mg/kg]
CC(=O)NC[C@@H]1OC(=O)N2c3ccc(S(C)(=O)=O)cc3C[C@@H]12	32 (≈ 98.7 µM)	64 (≈ 197 µM)	16 (≈ 49.3 µM)	64 (≈ 197 µM)	64 (≈ 197 µM)	> 32	–	–	–	–	–
CC(=O)NC[C@@H]1OC(=O)N2c3ccc(-c4cccnc4)cc3CC[C@H]12	> 64	> 64	> 64	> 64	> 64	> 32	–	–	–	–	–
CC(=O)NC[C@@H]1OC(=O)N2c3ccc(S(N)(=O)=O)cc3C[C@@H]12	> 64	> 64	> 64	> 64	> 64	> 32	–	–	–	–	–
CC(=O)NC[C@@H]1OC(=O)N2c3ccc(C(C)=O)cc3C[C@@H]12	–	8 (≈ 27.7 µM)	–	16 (≈ 55.5 µM)	8 (≈ 27.7 µM)	–	39.5	–	–	–	–
CC(=O)NC[C@@H]1OC(=O)N2c3ccc(-c4cccnc4)cc3CC[C@@H]12	16 (≈ 47.4 µM)	32 (≈ 94.8 µM)	16 (≈ 47.4 µM)	32 (≈ 94.8 µM)	16 (≈ 47.4 µM)	> 32	–	–	–	–	–
CC(=O)NC[C@@H]1OC(=O)N2c3ccc(C(C)=O)cc3CC[C@@H]12	> 16	> 16	> 16	> 16	> 16	> 16	–	–	–	–	–
CC(=O)NC[C@@H]1OC(=O)N2c3ccc(-c4cccnc4)cc3C[C@@H]12	2 (≈ 6.19 µM)	4 (≈ 12.4 µM)	–	2 (≈ 6.19 µM)	2 (≈ 6.19 µM)	2 (≈ 6.19 µM)	9.4	4.4	–	–	–
CC(=O)NC[C@@H]1OC(=O)N2c3ccc(S(=O)(=O)N4CCCCC4)cc3C[C@@H]12	> 64	> 64	> 64	> 64	> 64	> 32	–	–	–	–	–
CC(=O)NC[C@@H]1OC(=O)N2c3ccc(S(=O)(=O)NC4CCCC4)cc3C[C@@H]12	> 64	> 64	> 64	> 64	> 64	> 32	–	–	–	–	–
CC(=O)NC[C@@H]1OC(=O)N2c3ccc(S(=O)(=O)N4CCOCC4)cc3C[C@@H]12	> 64	> 64	> 64	> 64	> 64	> 32	–	–	–	–	–
CC(=O)NC[C@@H]1OC(=O)N2c3ccccc3CC[C@H]12	> 64	> 64	> 64	> 64	> 64	> 32	–	–	–	–	–
CC(=O)NC[C@@H]1OC(=O)N2c3ccc(C(C)=O)cc3CC[C@H]12	> 16	> 16	> 16	> 16	> 16	> 16	–	–	–	–	–
CC(=O)NC[C@@H]1OC(=O)N2c3ccccc3C[C@H]12	> 32	> 32	> 32	> 32	> 32	–	–	–	> 32	–	–
CC(=O)NC[C@@H]1OC(=O)N2c3ccc(-c4ccc(C#N)cc4)cc3C[C@@H]12	4 (≈ 11.5 µM)	4 (≈ 11.5 µM)	2 (≈ 5.76 µM)	2 (≈ 5.76 µM)	2 (≈ 5.76 µM)	32 (≈ 92.1 µM)	17.1	–	–	–	–
CC(=O)NC[C@@H]1OC(=O)N2c3ccc(C(C)=O)cc3C[C@H]12	> 16	> 16	> 16	> 16	> 16	> 16	–	–	–	–	–
CC(=O)NC[C@@H]1OC(=O)N2c3ccc(S(=O)(=O)Nc4ccccc4)cc3C[C@@H]12	> 64	> 64	> 64	> 64	> 64	> 32	–	–	–	–	–

SMILES	MIC (Staphylococcus aureus [1]) [µg/mL]	MIC (Staphylococcus aureus [2]) [µg/mL]	MIC (Streptococcus pneumoniae) [µg/mL]	MIC (Enterococcus faecalis) [µg/mL]	MIC [3] [µg/mL]	MIC (Bacteroides fragilis [4]) [µg/mL]	ED50 (Mus musculus [5]) [mg/kg]	ED50 (Staphylococcus aureus [6]) [mg/kg]	MIC (Bacteroides fragilis [7]) [µg/mL]	ED50 (Staphylococcus aureus [8]) [mg/kg]	ED50 (Mus musculus [9]) [mg/kg]
CC(=O)NC[C@@H]1OC(=O)N2c3ccc(S(=O)(=O)NCc4ccccc4)cc3C[C@@H]12	> 64	> 64	> 64	> 64	> 64	> 32	–	–	–	–	–
CC(=O)NC[C@@H]1OC(=O)N2c3ccccc3C[C@@H]12	> 32	> 32	> 32	> 32	> 32	> 32	–	–	–	–	–
CC(=O)NC[C@@H]1OC(=O)N2c3ccc(-c4ccncc4)cc3C[C@@H]12	–	–	–	2 (≈ 6.19 µM)	–	8 (≈ 24.7 µM)	–	16.5	–	6.1	–
CC(=O)NC[C@@H]1OC(=O)N2c3ccccc3CC[C@@H]12	> 64	> 64	> 64	> 64	> 64	> 32	–	–	–	–	–
CC(=O)NC[C@@H]1OC(=O)N2c3ccc(N4CCOCC4)cc3C[C@@H]12	64 (≈ 193 µM)	64 (≈ 193 µM)	32 (≈ 96.6 µM)	128 (≈ 386 µM)	32 (≈ 96.6 µM)	> 16	–	–	–	–	> 20
CC(=O)NC[C@@H]1OC(=O)N2c3ccc(-c4cncnc4)cc3C[C@@H]12	4 (≈ 12.3 µM)	8 (≈ 24.7 µM)	–	4 (≈ 12.3 µM)	4 (≈ 12.3 µM)	8 (≈ 24.7 µM)	11.4	–	–	–	–
CCNS(=O)(=O)c1ccc2c(c1)C[C@H]1[C@H](CNC(C)=O)OC(=O)N21	> 64	> 64	> 64	> 64	> 64	> 32	–	–	–	–	–
CC(=O)NC[C@@H]1OC(=O)N2c3ccc(S(=O)(=O)N(C)C)cc3C[C@@H]12	64 (≈ 181 µM)	64 (≈ 181 µM)	64 (≈ 181 µM)	> 64	64 (≈ 181 µM)	> 32	–	–	–	–	–
CC(=O)NC[C@@H]1OC(=O)N2c3ccc(S(=O)(=O)N(C)CCCO)cc3C[C@@H]12	> 64	> 64	> 64	> 64	> 64	> 32	–	–	–	–	–
CC(=O)NC[C@H]1CN(c2ccc(N3CCOCC3)cc2)C(=O)O1	4 (≈ 12.5 µM)	4 (≈ 12.5 µM)	1 (≈ 3.13 µM)	4 (≈ 12.5 µM)	2 (≈ 6.26 µM)	4 (≈ 12.5 µM)	–	–	–	–	–
CC(=O)NC[C@@H]1OC(=O)N2c3ccc(-c4cccnc4)cc3C[C@@H]12.Cl	2	2	0.5	2	1	4	6	–	–	–	–
CC(=O)NC[C@H]1CN(c2ccc(C(C)=O)cc2)C(=O)O1 (racemic) [DUP-721]	4 (≈ 14.5 µM)	2 (≈ 7.24 µM)	2 (≈ 7.24 µM)	8 (≈ 29 µM)	4 (≈ 14.5 µM)	8 (≈ 29 µM)	–	18.1	–	9.4	–
CC(=O)NCC1OC(=O)N2c3ccc(C(C)=O)cc3CC12 (single isomer, unassigned; (+))	4 (≈ 13.9 µM)	4 (≈ 13.9 µM)	4 (≈ 13.9 µM)	4 (≈ 13.9 µM)	2 (≈ 6.94 µM)	4 (≈ 13.9 µM)	–	–	–	–	–
CC(=O)NC[C@H]1CN(c2ccc(N3CCOCC3)c(F)c2)C(=O)O1 [LINEZOLID]	–	–	–	–	1 (≈ 2.96 µM)	4 (≈ 11.9 µM)	2	–	–	–	–
CN[C@H](CC(C)C)C(=O)N[C@H]1C(=O)N[C@@H](CC(N)=O)C(=O)N[C@H]2C(=O)N[C@H]3C(=O)N[C@H](C(=O)N[C@H](C(=O)O)c4cc(O)cc(O)c4-c4cc3ccc4O)[C@H](O)c3ccc(c(Cl)c3)Oc3cc2cc(c3O[C@@H]2O[C@H](CO)[C@@H](O)[C@H](O)[C@H]2O[C@H]2C[C@](C)(N)[C@H](O)[C@H](C)O2)Oc2ccc(cc2Cl)[C@H]1O [VANCOMYCIN]	–	–	0.5 (≈ 0.345 µM)	4 (≈ 2.76 µM)	0.5 (≈ 0.345 µM)	> 16	1.1	–	–	–	–
